Results from the Deep4Chem optical property database.
One block for each compound: values may come before it.

Experiment: solvent given as SMILES

Structure (SMILES): F[B-]1(F)n2c(c3ccccc3c2-c2ccccc2)C=C2c3ccccc3C(c3ccccc3)=[N+]21
emission maximum (in C1CCOC1): 662 nm
emission maximum (in ClCCl): 658 nm

Structure (SMILES): CC(C)CCCCN1CCc2c1ccc1c3c(ccc21)CCCC3=O
emission maximum (in C1CCCCC1): 507 nm
emission maximum (in CC#N): 625 nm
emission maximum (in CC(C)O): 637 nm
emission maximum (in CCC(C)=O): 612 nm
emission maximum (in CCO): 539 nm
emission maximum (in CCOC(C)=O): 586 nm
emission maximum (in CS(C)=O): 643 nm
emission maximum (in Cc1ccccc1): 554 nm
emission maximum (in ClCCl): 595 nm
emission maximum (in Clc1ccccc1): 573 nm

Structure (SMILES): Cc1ccc(Nc2ccc(Nc3ccc(C)cc3)c3c2C(=O)c2ccccc2C3=O)cc1
emission maximum (in C1CCCCC1): 680 nm
emission maximum (in C1COCCO1): 684 nm
emission maximum (in CC(C)=O): 684 nm
emission maximum (in CCCCCCCCCCO): 682 nm
emission maximum (in CCCCCCCO): 684 nm
emission maximum (in CCCCCCO): 682 nm
emission maximum (in CCCCO): 683 nm
emission maximum (in CCO): 684 nm
emission maximum (in CN(C)C=O): 686 nm
emission maximum (in CO): 682 nm
emission maximum (in CS(C)=O): 689 nm
emission maximum (in ClC(Cl)(Cl)Cl): 685 nm
emission maximum (in c1ccccc1): 684 nm

Structure (SMILES): N#Cc1ccc(-c2cnc3cccc(-c4ccccc4)n23)cc1
emission maximum (in ClCCl): 457 nm

Structure (SMILES): Cc1ccc2nc(/C=C/c3ccc(N(C)C)cc3)c(-c3ccccc3)nc2c1
emission maximum (in C1COCCO1): 528 nm
emission maximum (in CC#N): 614 nm
emission maximum (in ClCCl): 571 nm

Structure (SMILES): O=c1oc2ccccc2cc1-c1cccc(-c2cc3ccccc3oc2=O)c1
emission maximum (in ClC(Cl)Cl): 419 nm

Structure (SMILES): N#Cc1cnc(-c2c3ccccc3cc3ccccc23)nc1
emission maximum (in CCO): 510 nm
emission maximum (in ClCCl): 492 nm

Structure (SMILES): F[B-]1(F)n2cccc2C(c2ccccc2)=C2C=CC(c3ccc(OC4=[N+]5C(=C(c6ccccc6)c6cc(Br)c(Br)n6[B-]5(F)F)C=C4Br)cc3)=[N+]21
emission maximum (in ClC(Cl)Cl): 574 nm

Structure (SMILES): Cc1nc(-c2ccc(N3c4ccccc4C(c4ccccc4)(c4ccccc4)c4ccccc43)cc2)cc(-c2ccc(N3c4ccccc4C(c4ccccc4)(c4ccccc4)c4ccccc43)cc2)n1
emission maximum (in Cc1ccccc1): 453 nm
emission maximum (in O=P(c1ccccc1)(c1ccccc1)c1ccc2oc3ccc(P(=O)(c4ccccc4)c4ccccc4)cc3c2c1): 458 nm

Structure (SMILES): CNCCCN1c2ccccc2CCc2ccccc21
emission maximum (in CC#N): 348 nm
emission maximum (in CO): 356 nm
emission maximum (in O): 400 nm

Structure (SMILES): COc1ccc(-c2cc(-c3ccc(OC)cc3)c3c(N)nc(N4CCCC4)c(C#N)c3n2)cc1
emission maximum (in CC#N): 516 nm
emission maximum (in CC(C)=O): 513 nm
emission maximum (in CC(C)O): 507 nm
emission maximum (in CO): 515 nm
emission maximum (in ClC(Cl)Cl): 500 nm
emission maximum (in ClCCl): 506 nm
emission maximum (in c1ccccc1): 502 nm

Structure (SMILES): N#Cc1c(N2CCCCC2)cc(-c2ccc3ccc4cccc5ccc2c3c45)c2c1C(=O)c1ccccc1-2
emission maximum (in C1CCOC1): 473 nm

Structure (SMILES): COc1cc2c(cc1-c1ccc(C)cc1)Cc1c3c(c4c(c1-2)-c1cc(OC)c(-c2ccc(C)cc2)cc1C4)C(=O)N(CCC(C)C)C3=O
emission maximum (in C1CCOC1): 476 nm

Further lines, results first:

emission maximum (in ClCCl): 448 nm
Structure (SMILES): CC(C)(C)c1ccc(-c2cc(-c3ccc(-c4cc(-c5ccc(C(C)(C)C)cc5)c(C(=O)NC5CCCCC5)s4)s3)sc2C(=O)NC2CCCCC2)cc1

emission maximum (in ClCCl): 585 nm
Structure (SMILES): CC(C)(C)OC(=O)N1CCN(c2ccc3c(-c4ccc(I)cc4)c4ccc(=[N+]5CCN(C(=O)OC(C)(C)C)CC5)cc-4oc3c2)CC1

emission maximum (in C1COCCO1): 326 nm
emission maximum (in CC#N): 325 nm
emission maximum (in CCO): 325 nm
emission maximum (in ClC(Cl)Cl): 325 nm
emission maximum (in O): 324 nm
emission maximum (in OCCO): 325 nm
emission maximum (in [2H]O[2H]): 324 nm
Structure (SMILES): NC(=O)Cc1cccc2ccccc12

emission maximum (in ClC(Cl)Cl): 635 nm
Structure (SMILES): CCCCN1c2ccccc2Sc2cc(/C=C\c3cc(=O)oc4ccc(C)cc34)ccc21

emission maximum (in ClCCl): 485 nm
Structure (SMILES): COc1ccc(-c2ccc(/C=C/c3cnc4ccccc4n3)cc2)cc1

emission maximum (in ClCCl): 493 nm
Structure (SMILES): S=P1(c2ccccc2)c2cccc3c4c5ccccc5c5ccccc5c4c4ccc1n4c23 (stereo unspecified)

emission maximum (in C1CCOC1): 601 nm
Structure (SMILES): c1cc2c3c4c5c(cccc5cc3c1)-c1cccn1B4n1cccc1-2

emission maximum (in C1CCOC1): 593 nm
Structure (SMILES): COc1cc2c(cc1-c1ccc(N(C)C)cc1)Cc1c3c(c4c(c1-2)-c1cc(OC)c(-c2ccc(N(C)C)cc2)cc1C4)C(=O)N(CCC(C)C)C3=O
